Results taken from PMC2993773 (Journal of natural products, 2010).

Experiments:
[1] = system: P-388 murine leukemia cells; conditions: in vitro; cited from earlier work
[2] = system: KB-VIN multidrug-resistant human cancer cell line; experiment: In vitro cytotoxicity; type: cell-based
[3] = system: KB nasopharyngeal human cancer cell line; experiment: In vitro cytotoxicity; type: cell-based; conditions: KB cells (value in parentheses)

## C=C(CC[C@@H](C)[C@H]1CC[C@H]2C3=C(C(=O)C[C@]12C)[C@@]1(C)CCC(=O)[C@@H](C)[C@@H]1CC3=O)C(C)C(=O)O (stereo partly shown) [Compound 11, zhankuic acid A]
[1]
  cytotoxicity against P-388 murine leukemia cells: significant cytotoxicity

## C=C(CC[C@@H](C)[C@H]1CC[C@H]2C3=C(C(=O)C[C@]12C)[C@@]1(C)CCC(=O)[C@@H](C)[C@@H]1C[C@@H]3O)C(C)C(=O)OC (stereo partly drawn) [Compound 6, methyl 7β-hydroxy-3,11-dioxo-4α-methylergosta-8,24(28)-dien-26-oate]
[2]; inferred from lack of cross-resistance shown by KB-VIN
  substrate of P-glycoprotein (P-gp): not substrates of P-glycoprotein

## C=C(CC[C@@H](C)[C@H]1CC[C@@]2(O)C3=C(C(=O)C[C@]12C)[C@@]1(C)CCC(=O)[C@@H](C)C1C[C@@H]3O)C(C)C(=O)O (stereo partly drawn) [Compound 4, 7β,14α-dihydroxy-3,11-dioxo-4α-methylergosta-8,24(28)-dien-26-oic acid]
[2]; not told
  substrate of P-glycoprotein (P-gp): not substrates of P-glycoprotein

## C=C(CC[C@@H](C)[C@H]1CC[C@H]2C3=C(C(=O)[C@H](O)[C@]12C)[C@@]1(C)CC[C@@H](O)[C@@H](C)[C@@H]1CC3=O)C(C)C(=O)O (stereo partly shown) [Compound 13, zhankuic acid C]
[1]
  cytotoxicity against P-388 murine leukemia cells: significant cytotoxicity

## eburicol [Compound 19]
[3]
  % inhibition at 20 μM, KB: 34%
[2]; 20 μM, KB-VIN cells (value in parentheses)
  % inhibition at 20 μM, KB-VIN: 18%

## COc1cc([C@@H]2c3cc4c(cc3[C@@H](O[C@@H]3O[C@@H]5CO[C@@H](C)O[C@H]5[C@H](O)[C@H]3O)[C@H]3COC(=O)[C@H]23)OCO4)cc(OC)c1O [etoposide, reference compound]
[2]; KB-VIN versus KB
  activity in KB-VIN relative to KB (cross-resistance): at least eight-fold less active
